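Five compound concentrations were applied to cells in 96-well plates for 48 hours; endpoints were derived by simple linear interpolation of the resulting dose-response curve. At the TGI there is no net growth.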

This is an account of results in PubChem BioAssay (NCI).

Holding throughout (experiment): NCI tumour cell line growth inhibition, 48 h
The test system of assay [1] is MALME-3M melanoma.
The subject of assay [2] is NCI-H226 lung.
For assay [3], the system named is SK-MEL-5 melanoma.
For assay [4], the system named is SK-MEL-2 melanoma.
In assay [5] the test system is IGROV1 ovarian.
In assay [6] the test system is CCRF-CEM leukemia.
Assay [7] deals with CAKI-1 renal.
In assay [8] the test system is M14 melanoma.
The subject of assay [9] is OVCAR-5 ovarian.
The subject of assay [10] is DU-145 prostate.
For assay [11], the system named is UACC-257 melanoma.
The subject of assay [12] is SK-OV-3 ovarian.
The subject of assay [13] is KM12 colon.
The test system of assay [14] is MDA-N.
Assay [15] relates to HOP-62 NSCLC.
The test system of assay [16] is PC-3 prostate.
Assay [17] deals with K-562 leukemia.
For assay [18], the system named is HCT-116 colon.
For assay [19], the system named is SF-539 CNS.
Assay [20] relates to M19-MEL melanoma.

`Cc1noc2nnn(-c3ccc(Cl)cc3)c(=O)c12`: the TGI amounted to 26 µM in assay [1]; 9.83 µM in assay [2]; 13 µM in [3]; 10.5 µM in [4]; 19.2 µM in assay [5]; 2.48 µM in assay [6]. The TGI in assay [7] came to 13 µM; in assay [8], 25.4 µM; in assay [9], 20 µM; in [10] it was 14.3 µM; in assay [11], 20.9 µM; in assay [12], 26.5 µM. The TGI in assay [13] was found to be 31.1 µM; in assay [14], 17.9 µM; in [15], 29.7 µM; in [16] it was 19.2 µM; in [17] it was 11.2 µM; in assay [18], 11.3 µM. In assay [19], this molecule had a TGI of 1.73 µM.

On to `CC(C)(C)c1cc(C2=NN(c3ccccc3)C(c3ccccc3)C2)cc(C(C)(C)C)c1O` (stereo not drawn), for which the TGI in [1], in assay [2], in [3], in [4], in assay [5] and in assay [6] was above 100 µM throughout. The TGI in [7], in assay [8], in assay [9], in [10], in assay [11] and in assay [12] was above 100 µM throughout. Also, the TGI in [13], in assay [14], in assay [15], in [16], in [17] and in [18] was above 100 µM throughout. Moreover, the TGI in assay [19] was above 100 µM.

In the case of `Cc1ccc(S(=O)(=O)OCC23CCC(CC2)C2CC23)cc1` (stereo not drawn), the TGI in assay [1] was above 100 µM; in assay [2], above 100 µM; in assay [3], 75.4 µM; in assay [5], above 100 µM; in [6] it was above 100 µM; in [7], above 100 µM. Besides, the TGI in assay [8], in [9], in [11], in assay [12], in assay [15] and in [17] was above 100 µM throughout. Moreover, the TGI in assay [18] and in assay [20] was above 100 µM each time.

Consider `COc1ccc(/C=C2\N=C(c3ccccc3)N(N=C3NC(=O)CC(=O)N3)C2=O)cc1`, for which the TGI in [1], in assay [2], in assay [3], in assay [4], in [5] and in assay [6] was above 100 µM in each case. For the same molecule, the TGI in assay [7], in assay [8], in [9], in [10], in [11] and in [12] was above 100 µM each time. The TGI in [13], in assay [14], in assay [15], in [16], in assay [17] and in assay [18] was above 100 µM each time. In [19], this molecule returned a TGI above 100 µM.

With `CC(=O)O[C@@H]1C2=C(C)C=C(O2)[C@H]2O[C@]2(C)C[C@H]2C=C(C(=O)O2)[C@H](OC(C)=O)CC1[C@@]1(C)CO1` (stereo partly drawn), the TGI in assay [1] is 58.4 µM; in [2], above 100 µM; in assay [3] it was above 100 µM; in assay [4], above 100 µM; in [5], 30.8 µM; in [6] it was 29.6 µM. Moreover, the TGI in assay [7] is 62.8 µM; in assay [8], 64.2 µM; in [9] it was 76.8 µM; in assay [10] it was above 100 µM; in assay [11], above 100 µM; in assay [12] it was above 100 µM. In addition, the TGI in assay [13] is above 100 µM; in [14] it was above 100 µM; in [15] it was 57.9 µM; in [16] it was above 100 µM; in assay [17], 36.5 µM; in assay [18], 28.4 µM. The molecule also displayed a TGI in [19] of 83.4 µM.

In the case of `CCCCN1C(=O)c2c(-c3sccc3N)sc(-c3sccc3N)c2C1=O`, the TGI is above 100 µM in assay [1]; 42.7 µM in assay [2]; above 100 µM in assay [3]; above 100 µM in assay [4]; above 100 µM in assay [5]; above 31 µM in [6]. For the same molecule, the TGI in [7] is above 100 µM; in assay [8], above 100 µM; in assay [9] it was above 78.9 µM; in assay [10], above 100 µM; in [11], above 100 µM; in assay [12], 35.8 µM. Further, the TGI in assay [13] was above 100 µM; in assay [14], above 34.6 µM; in assay [15] it was 41.5 µM; in assay [16] it was above 100 µM; in assay [17] it was above 100 µM; in assay [18], above 100 µM. The molecule also had a TGI in assay [19] of 32.8 µM.

For the molecule `CCOC(=O)c1ccc(C(=O)/C(C(C)=O)=C2\CCCN2C)n1C`, the TGI in assay [1], in assay [2], in [3], in assay [4], in [5] and in assay [6] was above 100 µM each time. In addition, the TGI in [7], in [8], in assay [9], in assay [10], in [11] and in assay [12] was above 100 µM each time. The TGI in assay [13], in assay [14], in assay [15], in [16], in assay [17] and in assay [18] was above 100 µM in each case. In assay [19], this molecule had a TGI of 22.8 µM.
